Measured values: paper PMC8845285, “Serotoninergic receptor ligands improve Tamoxifen effectiveness on breast cancer cells” (BMC Cancer, 2022)

Legend:
Assay type in all cases: cell-based, human
[1] = tested on: Tamoxifen-cultured MCF7 cells; experiment: Tamoxifen-cultured MCF7 cell viability, sulforhodamine B assay; settings: Tamoxifen 5 μM, E2 100 nM, 72 h
Method: (§1) Cells were fixed with 50% trichloroacetic acid for at least 2 h at 4 °C, washed with distilled and de-ionized water, air-dryed and stained 30 min with 0.4% sulforhodamine B in 1% acetic acid. Unbound dye was removed and 10 mM tris-HCl solution (pH 7.5) was added to dissolve the protein-bound dye. Cell survival was assessed by optical density determination at 510 nm using a microplate reader.
To further investigate the effect of SER79 and SER68 on Tamoxifen responsiveness and CTGF expression in MCF7 cells, we obtained - by a continuous treatment of 10 days with 1 μM Tamoxifen – a cellular model less sensitive to the drug (Tamoxifen-cultured MCF7). We observed that 20 μM SER79, 20 μM and 40 μM SER68, while not 5 μM SER79, reduced viability of Tamoxifen-cultured MCF7 cells by about 40% (adjp<0.01; Fig. 8a). […] However, in the presence of 20 μM SER79, 20 μM and 40 μM SER68, Tamoxifen elicited a further 40% reduction of viability, similar to that achieved in Tamoxifen-responsive MCF7 cells (adjp<0.01; Fig. 8b).
Fig. 8 Effect of SER79 and SER68 on Tamoxifen-cultured MCF7 cells. MCF7 cells were cultured in presence of Tamoxifen (1 μM) for 10 days. Estrogen-starved MCF7 and Tamoxifen-cultured MCF7 cells (48 h) were (a-c) treated with SER79 (20 μM, 5 μM) or SER68 (40 μ, 20 μM), (b) treated with Tamoxifen (5 μM) in presence of SER79 (20 μM, 5 μM) or SER68 (40 μM, 20 μM). All treatments were carried out in presence of E2 (100 nM) for 72 h. As positive control, the cells were treated with (a-c) E2 alone or (b) E2 in absence or in presence of SER (as indicated, dotted line). a,b Cell viability was assessed by sulforhodamine B assay (see Methods). The results were reported as percentage of viable cells compared to positive control, considered as maximum viability (100%). c mRNA levels of CTGF were determined by qPCR (see Methods and Table 1). Data were normalized on Ribosomal Protein S23 (Rps23) gene as internal standard and reported as CTGF mRNA levels in Tamoxifen-cultured MCF7 relative to those in MCF7 cells (dotted line). a-c Graphs represent the mean ± SD of at least three independent triplicate experiments. * denotes statistically significant values compared with (a,b) positive control (*adjp<0.05, ** adjp<0.01) or (c) MCF7 cells (*pval<0.05); # denotes statistically significant values compared with (b) cells treated with Tamoxifen in absence of SER or (c) untreated Tamoxifen-cultured MCF7 cells (#pval<0.01, ##pval<0.0001)

MCF7-R cells = experiment: Tamoxifen-resistant MCF7-R cell viability, sulforhodamine B assay; settings: up to 6 μM, E2 100 nM, 72 h
Method: as §1
MCF7 cells were cultured for 4 months in phenol-red free medium supplemented with 10% (C/S) FBS and continuously exposed to Tamoxifen (1 μM). […] To further validate the degree of drug resistance, the expression levels of ABCC1, ABCG1 and ABCG2 – members of ABC transporter family known as involved in multi-drug resistance – were evaluated by Quantitative Real-Time PCR (qPCR; see below) upon cell treatment with 5 μM Tamoxifen for 72 h.
Fig. 9 Effect of SER79 and SER68 on Tamoxifen-resistant (MCF7-R) cells. a Estrogen starved MCF7-R were treated with SER79 (20 μM, 5 μM) or SER68 (20 μM) in presence of E2 (100 nM). b Estrogen-starved MCF7-R were treated with Tamoxifen (5 μM) in presence of E2 and SER79 (20 μM) or SER68 (20 μM). a,b As positive control, the cells were treated with E2 alone, in absence or in presence of SER (dotted line). After 72 h, cell viability was assessed by sulforhodamine B assay (see Methods). The results were reported as percentage of viable cells compared to positive control, considered as maximum viability (100%). c mRNA levels of CTGF were determined by qPCR (see Methods and Table 1) in MCF7-R cells upon treatment with SER68 (20 μM). Data were normalized on Ribosomal Protein S23 (Rps23) gene as internal standard and reported as CTGF mRNA levels in MCF7-R. a-c Graphs represent the mean ± SD of at least three independent triplicate experiments. * denotes statistically significant values compared with (b) positive control or (c) MCF7 cells (*adjp<0.05; **adjp<0.001). # denotes statistically significant values compared with untreated MCF7-R (#pval<0.05) […]
Figure S3. Establishment of MCF7 Tamoxifen re sista n t(M C F7-R) cells. MCF7 cells were cultured with Tamoxifen (1µM), in absence of E2, for 4 months (M C F7-R). (a-b) MCF7 and MCF7-R cells were treated with in c re a s in gconcentration of Tamoxifen […]
As positive control, cells were treated with E2 alone. Cell viability was measured by sulforhodamine B assay (se e Methods). The re su ltswere re p o rte das percentage of viable cells compared to untreated cells, considered as maximum viability (100%). […]
(a ) * denotes statistically significant values compared with untreated cells […]
(§2) (1 picture or pasted object on this page, not shown here)

ABCC1, ABCG1 and ABCG2 = experiment: ABC transporter mRNA levels in MCF7-R cells, qPCR; settings: Tamoxifen 5 μM, E2 100 nM, 72 h
Method: Total RNA was isolated from cells, quantified (NanoDrop spectrophotometer, Life Technologies, Carlsbad, CA, USA) and reverse transcribed according to the manufacturer’s instructions. Semiquantitative PCR and qPCR assays were performed according to manufacturer’s instructions for Bio-Rad T100 thermal cycler and CFX Connect Real Time system (Biorad, Hercules, CA, USA), respectively. Relative gene expression quantification was measured by 2^−ΔΔCt method normalizing for the reference sample using Rps23 (Ribosomal Protein S23) as housekeeping gene.
Cell viability was measured
as §2

Compound: CC/C(=C(\c1ccccc1)c1ccc(OCCN(C)C)cc1)c1ccccc1 [Tamoxifen]
- effect of Tamoxifen treatment alone on viability of Tamoxifen-cultured MCF7 cells [1]: did not affect viability
- effect of Tamoxifen on MCF7-R cell viability (MCF7-R cells): did not reduce
- mRNA levels of ABCC1, ABCG1 and ABCG2 in Tamoxifen-treated MCF7-R cells (ABCC1, ABCG1 and ABCG2): higher
